Reference: BindingDB's records for doi:10.1016/j.bioorg.2015.01.005 (Kurukshetra University, 2015)

Tests used:
Cathepsin H = target: T1, Cathepsin H (Capra hircus, UniProt A0A060INS8); test: Cathepsin Ezyme Assay; settings: pH 6
T1 sequence (A0A060INS8 whole entry): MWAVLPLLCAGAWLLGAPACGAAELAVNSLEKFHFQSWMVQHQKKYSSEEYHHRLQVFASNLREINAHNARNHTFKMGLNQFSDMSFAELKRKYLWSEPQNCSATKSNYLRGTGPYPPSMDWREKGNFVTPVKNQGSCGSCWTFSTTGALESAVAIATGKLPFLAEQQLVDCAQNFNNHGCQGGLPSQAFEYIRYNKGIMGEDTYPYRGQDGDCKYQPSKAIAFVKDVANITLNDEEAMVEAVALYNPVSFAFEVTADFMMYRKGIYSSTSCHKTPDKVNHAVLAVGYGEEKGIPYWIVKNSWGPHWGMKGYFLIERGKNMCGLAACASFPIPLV
Method: (§1) Cathepsin B and H were first activated in the presence of thiol activators at pH 6.0 and pH 7.0, respectively. Then, 15 µL of the enzyme solution was mixed with 940 µL of 0.1 M sodium phosphate buffer containing 1 mM EDTA separately, for 10 min at 37 °C. […] After 30 min, 25 µL of 100 mM substance stock solution was added to start the reaction.

Cathepsin B = Cathepsin B (Capra hircus, UniProt H9B8T9); test: Cathepsin Ezyme Assay; settings: pH 6
Method: as §1

Row | SMILES | Ki (Cathepsin H) [µM] | Ki (Cathepsin B) [µM]
1 | O=C1NC(c2ccc([N+](=O)[O-])cc2)Nc2ccccc21 (centres undefined) [2-(4-Nitrophenyl)-2,3-dihydroquinazolin-4(1H)-one (1b)] | 10.4 | 1.57
2 | COc1ccc(C2NC(=O)c3ccccc3N2)cc1 (centres undefined) [2-(4-Methoxyphenyl)-2,3-dihydroquinazolin-4(1H)-one (1d)] | 56.8 | 2.81
3 | O=C1NC(c2ccc(Br)cc2)Nc2ccccc21 (centres undefined) | 52.6 | 32.5
4 | O=C1NC(c2ccc(Cl)cc2)Nc2ccccc21 (centres undefined) [2-(4-Chlorophenyl)-2,3-dihydroquinazolin-4(1H)-one (1e)] | 23.3 | 0.041
5 | O=C1NC(c2ccc(F)cc2)Nc2ccccc21 (centres undefined) [2-(4-Fluorophenyl)-2,3-dihydroquinazolin-4(1H)-one (1f)] | 8.18 | 0.0064
6 | CN(C)c1ccc(C2NC(=O)c3ccccc3N2)cc1 (centres undefined) [2-(4-(Dimethylamino)phenyl)-2,3-dihydroquinazolin-4(1H)-one (1h)] | 18.6 | 10.6
7 | Cc1ccc(C2NC(=O)c3ccccc3N2)cc1 (centres undefined) [2-(4-Methylphenyl)-2,3-dihydroquinazolin-4(1H)-one (1c)] | 2.5 | 52.6
